From a melting point compilation (Tetko et al.)

melting point [°C]	SMILES
126 to 128	COc1ccc(CNc2ccncc2)cc1
73 to 75	CC(O)c1ccc(N(C)Cc2ccccn2)c(F)c1 (stereo unspecified)
198 to 200	CC(C)CNCC(=O)O
61 to 63	NC(=Nc1ccccc1)N1CCCCC1
192 to 194	Cc1ccc(NS(=O)(=O)c2ccsc2C(=O)O)cc1
83 to 85	O=C(NCC(F)(F)F)c1cccc(S(=O)(=O)Cl)c1
334 to 336	O=C(O)c1c[nH]nc1-c1ccncc1
189 to 191	CC(C)=CCSCC(N)C(=O)O (stereo unspecified)
179 to 181	O=C(O)c1sc(-c2ccccc2)nc1C(F)F
87 to 89	CC1(C)CC(=O)c2ccccc2O1
69 to 71	Cc1nonc1C(=O)O
118 to 120	O=[N+]([O-])c1cccc2cc(I)cnc12
135 to 137	CC(Sc1ncccn1)C(=O)O (stereo unspecified)
57 to 59	CCOC(=O)C(=O)c1nccn1Cc1ccccc1
225 to 227	CC(=O)Nc1ccc(S(=O)(=O)N(C)CC(=O)O)cc1
76 to 79	O=C(CCl)NCCCc1ccccc1
134 to 136	COc1cc(OC)c(C(C)=O)cc1Cl
97 to 99	NCc1ccc(-n2cnc3ccccc32)nc1
95 to 97	Fc1ccc(-c2cncc(Cl)n2)cc1
251 to 253	O=C(O)c1cc(Cl)c2c(c1)OCCO2
182 to 184	COC(=O)c1c(C(=O)OC)c(-c2ccc(N)cc2)n2c1CCC2
129 to 131	O=Cc1cccc(NC(=O)c2ccc(Cl)cc2)c1
68 to 70	CN(CCOc1ccccc1F)C(=O)CCl
139 to 141	CC(NC(=O)c1cc(F)ccc1N)c1ccc(C#N)cc1 (stereo unspecified)

melting point [°C]	SMILES
149 to 151	c1ccc(C2=NCCN2)nc1
291 to 293	NC(=O)c1ccc(CSc2ncccc2C(=O)O)cc1
118 to 120	CS(=O)(=O)c1ccccc1NC(=O)CCl
129 to 131	O=C(O)C1Cc2cc(F)ccc2O1 (stereo unspecified)
121 to 123	Cc1ccc2nc3ccccc3c(Cl)c2c1
169 to 171	Cc1cc(Br)oc1C(=O)O
79 to 81	O=C(c1ccc(Br)cc1)N1CCNCC1
200 to 202	COc1ccc(-c2nnc(S)n2N)c(OC)c1
190 to 192	C#CCNC(=O)Nc1ccccc1[N+](=O)[O-]
222 to 224	O=C(O)c1ccnc(Cl)c1[N+](=O)[O-]
113 to 115	CC1CCN(CC(C)C(=O)NN)CC1 (stereo unspecified)
203 to 205	O=C(O)c1ccc(Br)cc1S
119 to 121	Cc1nn(-c2ccccc2)c(C)c1NC(=O)CCCl
179 to 181	O=C(O)C1=NN(Cc2ccccc2)C(=O)CC1
219 to 221	COc1ccc2nc(Sc3ncccc3C(=O)O)[nH]c2c1
132 to 134	CCC(C)(C)NC(=O)C(Br)C(C)C (stereo unspecified)
200 to 202	CS(=O)(=O)c1cccc(Cl)c1C(N)=O
94 to 96	O=C(O)Cc1cccc(OCc2cccc(Cl)c2)c1
178 to 180	Nc1cc2c(cc1NC(=O)c1cccs1)OCCO2
206 to 208	Cc1ccc(C2(C)NC(=O)N(CC(=O)O)C2=O)cc1 (stereo unspecified)
239 to 241	O=c1ccc(S(=O)(=O)N2CCCCC2)c[nH]1
36 to 38	COC(=O)c1c(C)nn(C)c1Cl
251 to 253	COc1ccc(-c2nnc(S)o2)cc1OC
44 to 46	CN(C)c1cncc(Cl)n1

melting point [°C]	SMILES
106 to 108	Cc1ccccc1-n1cc(C(=O)O)cn1
198 to 200	Cc1cc(S)n2c(nc3ccccc32)c1C#N
143 to 145	N#Cc1ccccc1SCC(=O)O
156 to 160	O=C(CCl)Nc1cccc(S(=O)(=O)N=C2CCCN2)c1
268 to 270	NNC(=O)c1ccc2c(=O)n3c(nc2c1)CCC3
275 to 277	Nc1nc2cnccc2s1
159 to 161	COCc1c(C(=O)O)sc2ccccc12
155 to 157	COc1ccc(N)c2cccnc12
113 to 115	CS(=O)(=O)Nc1cccc(Br)c1
132 to 134	CC(C)(C)C(=O)Nc1ccc(C(=O)CCl)cc1
72 to 74	Cc1ccc(S(=O)(=O)OCC2CCN(C(=O)OC(C)(C)C)CC2)cc1
137 to 139	CCc1cc2c(=O)n(N)cnc2s1
91 to 93	CC(=O)CC(=O)Nc1cccc(C)c1C
223 to 225	NC(=O)COc1cccc(C(=O)O)c1
124 to 126	CCOc1ccc(S(=O)(=O)N(C)C)cc1N
139 to 141	COCC(=O)Nc1ccc(O)cc1
49 to 51	COC(=O)c1sccc1O
227 to 229	O=C(O)c1ccc(NC(=O)c2cccs2)cc1
74 to 76	Fc1ccc(-c2cc(CBr)on2)cc1
97 to 99	CCn1cc2ccc(N)cc2n1
164 to 166	NC(=O)CCNC(=O)OCc1ccccc1
129 to 131	NC(=O)c1cc(OC2CCNCC2)ccn1
224 to 226	Nc1nnc(Cc2cccc3ccccc23)o1
142 to 144	CCOc1cn(-c2ccccc2)nc1C(=O)O

melting point [°C]	SMILES
65 to 67	CC(C)(C)OC(=O)NCCOc1cccc(N)c1
179 to 181	O/N=C/c1c(Cl)nc(Cl)n1-c1ccccc1
117 to 119	CC(C)c1nnc(S)n1N
86 to 90	CN(C(=O)CCl)C1(C#N)CCCCC1
97 to 99	CCOC(=O)c1c(NC(=O)CCl)sc(C)c1CC
99 to 101	CCOC(=O)c1nc(-c2ccc(Cl)c(Cl)c2)oc1C
130 to 132	CC(C)(C)OC(=O)NCCNS(=O)(=O)c1ccc(N)cc1
169 to 171	O=C(O)c1cc(Br)ncc1[N+](=O)[O-]
170 to 172	NS(=O)(=O)c1ccc(Br)cn1
129 to 131	c1cn(-c2cncnc2)cn1
98 to 100	CCc1sc(C(=O)O)cc1C
116 to 118	COc1ccc(CC(=O)O)cc1S(=O)(=O)N1CCOCC1
212 to 214	O=C(O)C=Cc1ccc(SC(F)(F)F)cc1
151 to 155	O=c1[nH]c2ccc(S(=O)(=O)Cl)cc2o1
143 to 145	CC(C)(C)c1ccc(Oc2ccc(C(=O)O)cn2)cc1
116 to 118	COc1ccc(NC(=O)OC(C)(C)C)c(N)c1
152 to 154	Nc1cc(Cl)cc([N+](=O)[O-])c1O
102 to 104	CN(C(=O)CSc1ccccc1C(=O)O)C1CCCCC1
219 to 221	O=C(O)c1ccc(CN2CCC(O)CC2)cc1
226 to 228	Cc1nc2cc(F)cc(C(=O)O)c2nc1C
151 to 153	CC(C(N)=NO)n1ccnc1 (stereo unspecified)
264 to 266	NCCC(=O)Nc1ccc(C(N)=O)c(Cl)c1
62 to 64	CCCCCCCCCCCCSc1nc2ccccc2c(=O)n1-c1ccccc1
95 to 97	COc1ccc(N)cc1OCc1cccnc1

SMILES	melting point [°C]
CC(Br)c1ccc([N+](=O)[O-])cc1 (stereo unspecified)	33 to 35
CN(C(=O)CCl)C(C)(C)C#N	55 to 57
Cc1nc2ccccc2c(=O)n1-c1ccc(Br)cc1	176 to 178
Brc1ccc2ncnc(N3CCNCC3)c2c1	99 to 101
COc1ccc(NC2=NCCS2)cc1OC	88 to 90
